Assay results from paper PMC5516003, “Betulinic acid is a PPARγ antagonist that improves glucose uptake, promotes osteogenesis and inhibits adipogenesis” (Scientific Reports, 2017).

Experiments:
[1] = target: T1, PPARγ (Homo sapiens, UniProt P37231); assay: ITC (reverse titration) and X-ray crystal structure; also affinity cartridge and GAL4 antagonist assay (IC50 […]); assay type: binding
T1 construct: gene PPARG
T1 sequence (P37231 222-505): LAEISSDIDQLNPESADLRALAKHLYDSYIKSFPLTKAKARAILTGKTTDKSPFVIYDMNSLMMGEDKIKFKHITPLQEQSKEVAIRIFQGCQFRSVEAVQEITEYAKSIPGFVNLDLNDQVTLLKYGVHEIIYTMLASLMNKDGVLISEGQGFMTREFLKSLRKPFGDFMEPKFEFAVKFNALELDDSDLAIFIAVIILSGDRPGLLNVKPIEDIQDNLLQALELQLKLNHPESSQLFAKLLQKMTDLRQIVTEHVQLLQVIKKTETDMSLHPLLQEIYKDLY

[2] = target: T2, PPARγ (Homo sapiens, UniProt P37231); assay: immobilized-receptor affinity cartridge (breakthrough shift); also GAL4 transactivation partial agonist, Emax […]; assay type: binding
T2 construct: gene PPARG; His-tagged PPARγ LBD
T2 sequence (P37231 231-505 limits assumed): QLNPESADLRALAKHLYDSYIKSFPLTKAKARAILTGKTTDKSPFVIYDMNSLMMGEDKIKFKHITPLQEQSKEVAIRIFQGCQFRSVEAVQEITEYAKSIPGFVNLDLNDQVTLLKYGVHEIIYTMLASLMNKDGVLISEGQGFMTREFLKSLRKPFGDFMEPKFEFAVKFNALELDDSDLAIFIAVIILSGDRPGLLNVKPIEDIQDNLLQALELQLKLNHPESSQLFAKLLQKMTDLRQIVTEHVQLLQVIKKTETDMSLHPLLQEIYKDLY

SMILES | Kd [1] [µM] | immobilized-receptor affinity cartridge (breakthrough shift); also GAL4 transact [2]
C=C(C)[C@@H]1CC[C@]2(C(=O)O)CC[C@]3(C)[C@H](CC[C@@H]4[C@@]5(C)CC[C@H](O)C(C)(C)[C@@H]5CC[C@]43C)[C@@H]12 [BA, betulinic acid] | 4 | 
CC1=CC(=O)c2c(O)cccc2C1=O [plumbagin] |  | only three ligands (i.e., plumbagin, BA and coumarin) interact with the receptor
